# Target: T1, APOL1 G2 (Homo sapiens, UniProt O14791, DEL388-389)
# T1 construct: expressed in transfected cells; host or cells: HEK293 T-REx clonal line stably expressing GCaMP6f (HEK T-REx/GCaMP6f/APOL1 G2 K6.3), doxycycline induced
# T1 sequence (O14791 with tags, fused parts or gaps DEL388-389): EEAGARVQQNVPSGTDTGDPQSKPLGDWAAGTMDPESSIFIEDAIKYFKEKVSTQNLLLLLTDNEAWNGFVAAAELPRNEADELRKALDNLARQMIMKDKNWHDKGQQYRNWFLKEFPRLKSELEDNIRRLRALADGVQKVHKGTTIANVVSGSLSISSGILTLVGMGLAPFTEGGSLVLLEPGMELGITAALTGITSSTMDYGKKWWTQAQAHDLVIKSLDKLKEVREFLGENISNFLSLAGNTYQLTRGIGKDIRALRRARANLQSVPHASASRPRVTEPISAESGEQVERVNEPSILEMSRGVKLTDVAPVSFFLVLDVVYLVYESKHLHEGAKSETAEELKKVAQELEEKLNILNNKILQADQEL
# Experiment: APOL1-mediated calcium transport (calcium influx) assay, HEK T-REx/GCaMP6f/APOL1 G2 K6.3 cells, FLIPR TETRA
# Format: cell-based
# Details: prevention of calcium influx; geometric mean of at least 2 assay runs; † = average of a technical replicate from a single assay run
# In short: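 A HEK293 T-REx clone stably expressing GCaMP6f had APOL1 G2 induced with doxycycline (20 ng/mL solution added) for 6 h. Cells were then washed into Ca2+-free Tyrode's buffer (pH 7.4) and preincubated with compounds (duplicate 8-point) for 10 min at room temperature. Ca2+ injection to 5 mM final produced FLIPR GCaMP fluorescence, giving AC50 for influx inhibition (geometric mean, ≥2 runs).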
row,Compound,AC50 [nM]
1,"C[C@@H](COc1ccc(S(C)(=O)=O)cc1)N1CCC2(CC1)C(=O)Nc1ccc(Cl)cc12 (single isomer, unassigned) [Compound 10]",1270
2,"C[C@@H](COc1ccc(S(C)(=O)=O)cc1)N1CCC2(CC1)C(=O)Nc1ccccc12 (single isomer, unassigned) [Compound 12]",< 457
3,"C[C@@H](CN1CCC2(CC1)C(=O)Nc1ccccc12)Oc1ccc(S(C)(=O)=O)cc1 (single isomer, unassigned) [Compound 13]",< 587
4,"O=C1NCC2c3ccc(OCCN4CCC5(CC4)C(=O)Nc4ccc(Cl)cc45)cc3CCN12 (single isomer, unassigned) [Compound 116, (S) or (R)-5-chloro-1′-[2-({3-oxo-1H,2H,3H,5H,6H,10bH-imidazo[4,3-a]isoquinolin-8-yl}oxy)ethyl]-1,2-dihydrospiro[indole-3,4′-piperidin]-2-one]",466
5,"O=C1NCC2c3ccc(OCCN4CCC5(CC4)C(=O)Nc4ccc(Cl)cc45)cc3CCN12 (single isomer, unassigned) [Compound 117, (R) or (S)-5-chloro-1′-[2-({3-oxo-1H,2H,3H,5H,6H,10bH-imidazo[4,3-a]isoquinolin-8-yl}oxy)ethyl]-1,2-dihydrospiro[indole-3,4′-piperidin]-2-one]",396
6,"N#Cc1ccc2c(c1)C1(CCN(CCOc3ccc4c(c3)CCN3C(=O)NCC43)CC1)C(=O)N2 (single isomer, unassigned) [Compound 120, (R) or (S)-2-oxo-1′-[2-({3-oxo-1H,2H,3H,5H,6H,10bH-imidazo[4,3-a]isoquinolin-8-yl}oxy)ethyl]-1,2-dihydrospiro[indole-3,4′-piperidine]-5-carbonitrile]",1190
7,"O=C1CCC2c3ccc(OCCN4CCC5(CC4)C(=O)Nc4ccc(Cl)cc45)cc3CCN12 (single isomer, unassigned) [Compound 122, (S) or (R)-5-chloro-1′-[2-({3-oxo-1H,2H,3H,5H,6H,10bH-pyrrolo[2,1-a]isoquinolin-8-yl}oxy)ethyl]-1,2-dihydrospiro[indole-3,4′-piperidin]-2-one]",616
8,"O=C1CCC2c3ccc(OCCN4CCC5(CC4)C(=O)Nc4ccc(Cl)cc45)cc3CCN12 (single isomer, unassigned) [Compound 123, (R) or (S)-5-chloro-1′-[2-({3-oxo-1H,2H,3H,5H,6H,10bH-pyrrolo[2,1-a]isoquinolin-8-yl}oxy)ethyl]-1,2-dihydrospiro[indole-3,4′-piperidin]-2-one]",796
9,"CC(c1ccc(OCCN2CCC3(CC2)C(=O)Nc2ccc(C#N)cc23)cc1)S(C)(=O)=O (single isomer, unassigned) [Compound 134, (S) or (R)-1′-{2-[4-(1-methanesulfonylethyl)phenoxy]ethyl}-2-oxo-1,2-dihydrospiro[indole-3,4′-piperidine]-5-carbonitrile]",879
10,"CC(c1ccc(OCCN2CCC3(CC2)C(=O)Nc2ccc(C#N)cc23)cc1)S(C)(=O)=O (single isomer, unassigned) [Compound 135, (R) or (S)-1′-{2-[4-(1-methanesulfonylethyl)phenoxy]ethyl}-2-oxo-1,2-dihydrospiro[indole-3,4′-piperidine]-5-carbonitrile]",763
11,"CC(c1c(F)cc(OCCN2CCC3(CC2)C(=O)Nc2ccc(C#N)cc23)cc1F)S(C)(=O)=O (single isomer, unassigned) [Compound 138, (S) or (R)-1′-{2-[3,5-difluoro-4-(1-methanesulfonylethyl)phenoxy]ethyl}-2-oxo-1,2-dihydrospiro[indole-3,4′-piperidine]-5-carbonitrile]",1220
12,"CC(c1c(F)cc(OCCN2CCC3(CC2)C(=O)Nc2ccc(C#N)cc23)cc1F)S(C)(=O)=O (single isomer, unassigned) [Compound 139, (R) or (S)-1′-{2-[3,5-difluoro-4-(1-methanesulfonylethyl)phenoxy]ethyl}-2-oxo-1,2-dihydrospiro[indole-3,4′-piperidine]-5-carbonitrile]",1120
13,"CC(c1c(F)cc(OCCN2CCC3(CC2)C(=O)Nc2ccc(Cl)cc23)cc1F)S(C)(=O)=O (single isomer, unassigned) [Compound 142, (S) or (R)-5-chloro-1′-{2-[3,5-difluoro-4-(1-methanesulfonylethyl)phenoxy]ethyl}-1,2-dihydrospiro[indole-3,4′-piperidin]-2-one]",845
14,"CC(c1c(F)cc(OCCN2CCC3(CC2)C(=O)Nc2ccc(Cl)cc23)cc1F)S(C)(=O)=O (single isomer, unassigned) [Compound 143, (R) or (S)-5-chloro-1′-{2-[3,5-difluoro-4-(1-methanesulfonylethyl)phenoxy]ethyl}-1,2-dihydrospiro[indole-3,4′-piperidin]-2-one]",701
15,"CN=S(C)(=O)c1ccc(OCCN2CCC3(CC2)C(=O)Nc2ccc(Cl)cc23)cc1 (single isomer, unassigned) [Compound 148, (S) or (R)-5-chloro-1′-(2-{4-[methyl(methylimino)oxo-λ^6-sulfanyl]phenoxy}ethyl)-1,2-dihydrospiro[indole-3,4′-piperidin]-2-one]",960
16,"CN=S(C)(=O)c1ccc(OCCN2CCC3(CC2)C(=O)Nc2ccc(Cl)cc23)cc1 (single isomer, unassigned) [Compound 149, (R) or (S)-5-chloro-1′-(2-{4-[methyl(methylimino)oxo-λ^6-sulfanyl]phenoxy}ethyl)-1,2-dihydrospiro[indole-3,4′-piperidin]-2-one]",971
17,"CN=S(C)(=O)c1ccc(OCCN2CCC3(CC2)C(=O)Nc2ccc(C#N)cc23)cc1 (single isomer, unassigned) [Compound 151, (S) or (R)-1′-(2-{4-[methyl(methylimino)oxo-λ^6-sulfanyl]phenoxy}ethyl)-2-oxo-1,2-dihydrospiro[indole-3,4′-piperidine]-5-carbonitrile]",1740
18,"CN=S(C)(=O)c1ccc(OCCN2CCC3(CC2)C(=O)Nc2ccc(C#N)cc23)cc1 (single isomer, unassigned) [Compound 152, (R) or (S)-1′-(2-{4-[methyl(methylimino)oxo-λ^6-sulfanyl]phenoxy}ethyl)-2-oxo-1,2-dihydrospiro[indole-3,4′-piperidine]-5-carbonitrile]",1820
19,"O=C1Nc2ccc(Cl)cc2C12CCN(CCOc1ccc(C3CCCS3(=O)=O)cc1)CC2 (single isomer, unassigned) [Compound 176, (S) or (R)-2-[4-(2-{5-chloro-2-oxo-1,2-dihydrospiro[indole-3,4′-piperidin]-1′-yl}ethoxy)phenyl]-1λ^6-thiolane-1,1-dione]",547
20,"O=C1Nc2ccc(Cl)cc2C12CCN(CCOc1ccc(C3CCCS3(=O)=O)cc1)CC2 (single isomer, unassigned) [Compound 177, (R) or (S)-2-[4-(2-{5-chloro-2-oxo-1,2-dihydrospiro[indole-3,4′-piperidin]-1′-yl}ethoxy)phenyl]-1λ^6-thiolane-1,1-dione]",670
21,"CS(=O)(=O)c1ccc(OCCN2CCC3(CC2)C(=O)Nc2c(C#N)cc(Cl)cc23)cc1 [Compound 9, 5-chloro-1′-[2-(4-methanesulfonylphenoxy)ethyl]-2-oxo-1,2-dihydrospiro[indole-3,4′-piperidine]-7-carbonitrile]",1310
22,"CS(=O)(=O)CCCn1ncc2cc(OCCN3CCC4(CC3)C(=O)Nc3ccc(Cl)cc34)ccc21 [Compound 14, 5-chloro-1′-(2-{[1-(3-methanesulfonylpropyl)-1H-indazol-5-yl]oxy}ethyl)-1,2-dihydrospiro[indole-3,4′-piperidin]-2-one]",704
23,"O=C1Nc2ccc(Cl)cc2C12CCN(CCOc1ccc3c(cnn3C3COC3)c1)CC2 [Compound 15, 5-chloro-1′-(2-{[1-(oxetan-3-yl)-1H-indazol-5-yl]oxy}ethyl)-1,2-dihydrospiro[indole-3,4′-piperidin]-2-one]",654
24,"CC(C)n1ncc2cc(OCCN3CCC4(CC3)C(=O)Nc3ccc(Cl)cc34)ccc21 [Compound 16, 5-chloro-1′-(2-{[1-(propan-2-yl)-1H-indazol-5-yl]oxy}ethyl)-1,2-dihydrospiro[indole-3,4′-piperidin]-2-one]",1160
25,"O=C1Nc2ccc(Cl)cc2C12CCN(CCOc1ccc(S(=O)(=O)[C@H]3C[C@@H](O)C3)cc1)CC2 [Compound 17, 5-chloro-1′-[2-(4-{[(cis)-3-hydroxycyclobutyl]sulfonyl}phenoxy)ethyl]-1,2-dihydrospiro[indole-3,4′-piperidin]-2-one]",1100
26,"O=C1CCc2cc(OCCN3CCC4(CC3)C(=O)Nc3ccc(Cl)cc34)ccc2N1C1COC1 [Compound 99, 5-chloro-1′-(2-{[1-(oxetan-3-yl)-2-oxo-1,2,3,4-tetrahydroquinolin-6-yl]oxy}ethyl)-1,2-dihydrospiro[indole-3,4′-piperidin]-2-one]",643
27,"CS(=O)(=O)c1ccc(OCCN2CCC3(CC2)C(=O)Nc2ccc(C#N)cc23)cc1C(F)F [Compound 100, 1′-{2-[3-(difluoromethyl)-4-methanesulfonylphenoxy]ethyl}-2-oxo-1,2-dihydrospiro[indole-3,4′-piperidine]-5-carbonitrile]",503
